Test results taken from patent US20150258189A1, “HEPATITIS C VIRUS PARTICLES FORMATION PROMOTER, AND METHOD OF PRODUCING HEPATITIS C VIRUS PARTICLES” (priority 2012, published 2015).
Like-named read-outs stand apart in the source and are kept apart here.

Columns and labels:
Assay type in all cases: cell-based, hepatitis C virus
[1] = system: HCV JFH1 strain; settings: for Promotion ratio (HCV particle production-promoting effect): added after HCV adsorption, 46 h culture, Huh7-it cells, moi=0.1, control (DMSO) = 1.0
Procedure: In this example, the purified lovastatin solution “B15.4.1” (FIG. 1) of Example 1 was used as the “HCV particle formation promoter.” A lovastatin solution prepared by adding a culture medium to the HCV particle formation promoter to adjust each lovastatin concentration at the time of virus inoculation and at the time of culture to from 1.25 to 20 μg/ml was used in the following.
In this example, Huh7-it cells, a highly HCV-permissive cell line derived from Huh7 cells, were used as culture cells. The medium used was Dulbecco's modified Eagle's medium supplemented with 10% fetal calf serum, non-essential amino acids, penicillin, and streptomycin, and the cells were cultured using a 48-well culture plate.
A HCV stock solution to be used to promote formation of HCV particles was prepared by the following method. The HCV strain used was JFH1 strain (genome sequence: GenBank accession number AB047639). RNA having the same sequence as that of the full genome of the HCV JFH1 strain was introduced (transfected) into Huh7-it cells by an electroporation method (van den Hoff M J et al., Nucleic Acids Res., 20:2902, 1992), and the culture supernatant 72 hours after the introduction was collected. The collected culture supernatant was passed through a 0.45-μm filter (Millipore) to remove contaminants, and then added to other Huh7-it cells. An infectivity titer was calculated by measuring the number of HCV-infected cells after 72 hours by a focus method, and a solution adjusted to have an infectivity titer of 5.4×10^4 infectious units/ml was used as the HCV stock solution. The infectivity titer to prepare the HCV stock solution was calculated by an immunostaining method. An anti-HCV-core (clone CP14) monoclonal antibody was used as a primary antibody, and a HRP-labeled goat anti-mouse antibody was used as a labeling antibody. Konica Immunostain HRP-1000 (Konica Minolta) was added, and the number of virus antigen-positive cell populations stained in blue (immunofocus; also called focus) was measured under a microscope. Thus, the infectivity titer was calculated.
A mixture of the HCV stock solution (5.4×10^4 infectious units/ml) prepared in the above-mentioned section 3) and the HCV particle formation promoter was inoculated into culture cells, and the virus was adsorbed to the cells at 37° C. for 2 hours. Then, the virus liquid was removed, and the cells were washed three times with a culture medium. After that, in the same manner as described above, the cells were cultured for […] with the addition of the HCV particle formation promoter (lovastatin concentration: 1.25 to 20 μg/ml). The virus was inoculated into the culture cells so that the multiplicity of infection (moi) was 0.1.
To confirm a virus-producing ability, the culture medium of the infected cells was centrifuged at 10,000 rpm for 3 minutes, and the centrifugation supernatant was used as a sample liquid. The sample liquid was inoculated into non-HCV-infected Huh7-it cells. […] The number of staining-positive cells was measured, and the HCV infectivity titer was measured.
In this example, the crude lovastatin solution “B15” (FIG. 1) of Example 1 was used as the “HCV particle formation promoter.” A lovastatin solution prepared by adding a culture medium to the HCV particle formation promoter to adjust each lovastatin concentration at the time of virus inoculation and at the time of culture to from 1 to 50 μg/ml was used in the following.
In this example, HCV was inoculated into culture cells to achieve moi=0.1 as in Example 2, and the HCV particle formation promoter was added at the following timings i) to iii).
A mixture of HCV and the HCV particle formation promoter was inoculated into culture cells, and the virus was adsorbed to the cells at 37° C. for 2 hours. Then, the virus liquid was removed, and the cells were washed three times with a culture medium. After that, the cells were cultured for 46 hours with the addition of the HCV particle formation promoter containing lovastatin. […]

[2] = system: HCV JFH1 strain; assay: Intracellular HCV infectivity titer in Huh7-it cells (freeze-thawing method); settings: Example 5; 20 μg/ml lovastatin, from adsorption to 48 h after infection; versus DMSO control (FIG. 5)
Procedure: In this example, culture cells were prepared in the same manner as in Example 2 to confirm the influence on the HCV infectivity titer inside and outside Huh7-it cells in adding the HCV particle formation promoter to the cells over a period of from during HCV adsorption to 48 hours after HCV infection. In this example, the purified lovastatin solution “B15.4.1” (FIG. 1) of Example 1 was used as the HCV particle formation promoter. A lovastatin solution prepared by adding a culture medium to the HCV particle formation promoter to adjust each lovastatin concentration at the time of virus inoculation and at the time of culture to 20 μg/ml was used in the following. A system containing dimethylsulfoxide (DMSO) in place of the HCV particle formation promoter was used as a control.
A sample to measure an extracellular HCV infectivity titer was prepared in the same manner as in Example 2. A sample to measure an intracellular HCV infectivity titer was prepared by a freeze-thawing method. First, infected cells were washed with PBS and then detached by trypsin/EDTA treatment, followed by centrifugation to collect a cell pellet. The cell pellet was washed once with PBS, suspended in 0.5 ml of a culture medium, and freeze-thawed at −80° C. three times repeatedly, followed by centrifugation at 12,000 rpm for 5 minutes. […] Each sample was measured for its virus titer in the same manner as in Example 2.

[3] = system: HCV RNA; assay: Intracellular HCV RNA copy number by quantitative RT-PCR in Huh7-it cells; settings: Example 6; 20 μg/ml lovastatin; days 1, 2, 3 and 4 after infection; versus DMSO control (FIG. 6)
Procedure: In this example, culture cells were prepared in the same manner as in Example 2 to confirm the influence on the HCV RNA copy number in the culture cells on days 1, 2, 3, and 4 after HCV infection in adding the HCV particle formation promoter to Huh7-it cells over a period of from during HCV adsorption to 48 hours after HCV infection. In this example, the purified lovastatin solution “B15.4.1” (FIG. 1) of Example 1 was used as the HCV particle formation promoter. A lovastatin solution prepared by adding a culture medium to the HCV particle formation promoter to adjust each lovastatin concentration at the time of virus inoculation and at the time of culture to 20 μg/ml was used in the following. A system containing DMSO in place of the HCV particle formation promoter was used as a control.
A sample to measure an intracellular HCV RNA copy was prepared in the same manner as in Example 5. Total RNA was extracted from infected cells using Trizol®/Trizol®-LS (Invitrogen). cDNA was synthesized from the total RNA by performing a reverse transcription reaction at 37° C. for 15 minutes and an enzyme inactivation reaction at 98° C. for 5 minutes through the use of a ReverTra Ace® qPCR-Kit (Toyobo). The HCV RNA copy number was measured by a quantitative RT-PCR method using a LightCycler® 480 real-time PCR system. […]

[4] = system: HCV protein (antigen); assay: Intracellular HCV protein (antigen) synthesis by immunostaining in Huh7-it cells; settings: Example 6, 20 μg/ml lovastatin, versus DMSO control (FIG. 7)
[5] = system: HCV JFH1 strain; settings: added after HCV adsorption, 46 h culture, Huh7-it cells, moi=0.1, control (DMSO) = 1.0

Row | Compound | Promotion ratio (HCV particle production-promoting effect) ([1]; 1.25 μg/ml) | Promotion ratio (HCV particle production-promoting effect) ([1]; 2.5 μg/ml) | Promotion ratio (HCV particle production-promoting effect) ([1]; 5.0 μg/ml) | Promotion ratio (HCV particle production-promoting effect) ([1]; 20.0 μg/ml) | HCV infectivity titer ([1]; Example 2, 5 to 20 μg/ml of lovastatin, during adsorption and 48 h culture, Huh7-it cells (FIG. 2)) | virus infectivity titer ([1]; Example 4, 20 μg/ml lovastatin, added after HCV adsorption (with or without presence during adsorption), 46 h culture (FIG. 4)) | intracellular HCV particle-producing ability versus control [2] | intracellular HCV RNA replication amount [3] | intracellular HCV protein (antigen) synthesis amount [4] | Promotion ratio (HCV particle production-promoting effect) ([5]; 80.0 μg/ml) | Promotion ratio (HCV particle production-promoting effect) ([5]; 200.0 μg/ml)
1 | CC(C)c1c(C(=O)Nc2ccccc2)c(-c2ccccc2)c(-c2ccc(F)cc2)n1CC[C@@H](O)C[C@@H](O)CC(=O)O [Atorvastatin, calcium (3R,5R)-7-[2-(4-fluorophenyl)-5-isopropyl-3-phenyl-4-[(phenylamino)carbonyl]-1H-pyrrol-1-yl]-3,5-dihydroxyheptanoate] | 0.9 | 4.3 | 9.4 | 9.7 | – | – | – | – | – | – | –
2 | CC[C@H](C)C(=O)O[C@H]1C[C@@H](C)C=C2C=C[C@H](C)[C@H](CC[C@@H]3C[C@@H](O)CC(=O)O3)[C@H]21 [B15.4.1] | – | – | – | – | high HCV infectivity titer was found in a lovastatin concentration-dependent manner | high virus infectivity titer was found | substantially no difference | not affected | not affected | – | –
3 | CC[C@H](C)C(=O)O[C@H]1C[C@H](O)C=C2C=C[C@H](C)[C@H](CC[C@@H](O)C[C@@H](O)CC(=O)O)[C@H]21 [Pravastatin, (1S,βR,δR,8aβ)-1,2,6,7,8,8a-hexahydro-β,δ,6β-trihydroxy-2β-methyl-8α-[(S)-2-methyl-1-oxobutoxy]-1β-naphthaleneheptanoate] | – | – | 0.6 | 2.7 | – | – | – | – | – | 17.2 | 24.7
4 | CCC(C)(C)C(=O)O[C@H]1C[C@@H](C)C=C2C=C[C@H](C)[C@H](CC[C@@H]3C[C@@H](O)CC(=O)O3)[C@H]21 [Simvastatin, (1S,3R,7S,8S,8aR)-8-[2-[(2R,4R)-4-hydroxy-6-oxotetrahydropyran-2-yl]ethyl]-3,7-dimethyl-1,2,3,7,8,8a-hexahydro-1-naphthyl] | 8.5 | 14.8 | 19.5 | 4.1 | – | – | – | – | – | – | –
5 | CC[C@H](C)C(=O)O[C@H]1C[C@@H](C)C=C2C=C[C@H](C)[C@H](CC[C@@H]3C[C@@H](O)CC(=O)O3)[C@H]21 [Lovastatin, (1S,3R,7S,8S,8aR)-8-[2-((2R,4R)-4-hydroxy-6-oxotetrahydro-2H-pyran-2-yl)ethyl]-3,7-dimethyl-1,2,3,7,8,8a-hexahydro-1-naphthyl] | 0.8 | 3.5 | 6.1 | 11.1 | – | – | – | – | – | – | –
6 | CC(C)n1c(/C=C/[C@@H](O)C[C@@H](O)CC(=O)[O-])c(-c2ccc(F)cc2)c2ccccc21.[Na+] [Fluvastatin, sodium (3R,5S,6E)-7-[3-(4-fluorophenyl)-1-(1-methylethyl)-1H-indol-2-yl]-3,5-dihydroxy-6-heptenoate] | 9.2 | 14.3 | 15.2 | 7.9 | – | – | – | – | – | – | –
